What all share (test): Drug affinity chromatography with c-ponatinib and LC-MS/MS (ponatinib interactome)
Common to all, as to assay type: binding

Test [1] deals with T1, proteins of U2OS cell lysate (Homo sapiens, UniProt Q16643).
T1 construct: Proteins enriched by c-ponatinib from U2OS cell lysate; endogenous in cells; host or cells: U2OS cell lysate
The procedure: (§1) Drug affinity chromatography
(§2) U2OS cells were grown until approximately 80% confluent before being pelleted and washed with PBS. Cell pellets were subsequently lysed in buffer A (50 mM Tris pH 7.5, 0.8% v/v NP-40, 5% v/v glycerol, 1.5 mM MgCl2, 100 mM NaCl, 25 mM NaF, 1 mM Na3VO4, 1 mM PMSF, 1mM DTT, 10 μg/mL TLCK, 1 μg/ml Leupeptin, 1 μg/ml Aprotinin, 1 μg/ml soy bean trypsin) and lysates prepared […]
(§3) concentration was determined and lysates stored at -80 °C.
(§4) Briefly, 100 μl of bead slurry (50% in isopropanol) were used for each pulldown experiment. Beads were washed with DMSO (3 × 500 μl), and resuspended in DMSO (50 μl), to which the amine (0.025 μmol) and triethylamine (0.75 μl) were added. The beads were incubated at room temperature for 16 h, and depletion of free amine from the supernatant was determined by LC-MS analysis. Ethanolamine (2.5 μl) was then added to block any unreacted NHS sites, and the beads incubated for a further 16 h. Derivatized beads were then washed with DMSO (3 × 500 μl), buffer A (3 × 1 ml), and incubated with cell lysates (2 mg of protein per pulldown, at 6 […]
(§5) Beads and treated lysates were incubated for 2 h at 4 °C before washing with buffer A (5 ml), Buffer B (50 mM HEPES pH 7.5, 100 mM NaCl, 500 μM EDTA, 2.5 ml), and eluted with formic acid (100 mM, 250 μl). Samples were neutralized with triethylammoniumbicarbonate (TEAB, 1M, 62.5 μl) and stored at -20 °C until preparation for proteomic analysis.
(§6) Samples were reduced with DTT (10 mM final concentration) for 30 min at room temperature, alkylated with iodoacetamide (55 mM final concentration) for 30 min at room temperature, diluted to 300 μl with TEAB, and incubated with trypsin (6 μl, 0.2 mg/ml) overnight at 37 °C. The digests were desalted using SEPAC lite columns (Waters), eluted with 69 % v/v MeCN, 0.1 % v/v FA in H2O (1 ml) and dried in vacuo. Dried peptides were stored at -20 °C before resuspension in 2 % v/v MeCN, 1 % v/v FA in H2O (20 μl) for LC-MS/MS analysis.
(§7) LC-MS/MS data acquisition
(§8) Mass spectrometry data was acquired at the Discovery Proteomics Facility (University of Oxford).
(§9) Digested samples were analyzed by nano-UPLC–MS/MS using a Dionex Ultimate 3000 nano UPLC with EASY spray column (75 μm × 500 mm, 2 μm particle size, Thermo Fisher Scientific) with a 60 min gradient of 0.1 % (v/v) formic acid in 5 % (v/v) DMSO to 0.1 % (v/v) formic acid with 35 % (v/v) acetonitrile in 5 % (v/v) DMSO at a flow rate of approximately 250 nl min−1 (600 bar per 40 °C column temperature). Mass spectrometry data was acquired either with an Orbitrap Q Exactive (Survey scans acquired at a resolution of 70,000 @ 200m/z and the 15 most abundant precursors were selected for HCD fragmentation), or an Orbitrap Q Exactive High Field (HF) instrument (survey scans were […]

Test [2] concerns the target T2, proteins of U2OS cell lysate (Homo sapiens, UniProt Q15428).
T2 construct: Proteins enriched by c-ponatinib from U2OS cell lysate; endogenous in cells; host or cells: U2OS cell lysate
The method, then: as §1, §2, §3, §4, §5, §6, §7, §8, §9

Test [3] addresses T3, proteins of U2OS cell lysate (Homo sapiens, UniProt Q9NVA2).
T3 construct: Proteins enriched by c-ponatinib from U2OS cell lysate; endogenous in cells; host or cells: U2OS cell lysate
The procedure:
as §1, §2, §3, §4, §5, §6, §7, §8, §9

For test [4], the target named is T4, proteins of U2OS cell lysate (Homo sapiens, UniProt P63244).
T4 construct: Proteins enriched by c-ponatinib from U2OS cell lysate; endogenous in cells; host or cells: U2OS cell lysate
The method, then:
as §1, §2, §3, §4, §5, §6, §7, §8, §9

Test [5] concerns the target T5, proteins of U2OS cell lysate (Homo sapiens, UniProt Q13435).
T5 construct: Proteins enriched by c-ponatinib from U2OS cell lysate; endogenous in cells; host or cells: U2OS cell lysate
The method, then:
as §1, §2, §3, §4, §5, §6, §7, §8, §9

Test [6] addresses T6, proteins of U2OS cell lysate (Homo sapiens, UniProt P48643).
T6 construct: Proteins enriched by c-ponatinib from U2OS cell lysate; endogenous in cells; host or cells: U2OS cell lysate
The method, then: as §1, §2, §3, §4, §5, §6, §7, §8, §9

Test [7] has as its target T7, proteins of U2OS cell lysate (Homo sapiens, UniProt Q92598).
T7 construct: Proteins enriched by c-ponatinib from U2OS cell lysate; endogenous in cells; host or cells: U2OS cell lysate
The method, then:
as §1, §2, §3, §4, §5, §6, §7, §8, §9

Test [8] deals with T8, proteins of U2OS cell lysate (Homo sapiens, UniProt Q13409).
T8 construct: Proteins enriched by c-ponatinib from U2OS cell lysate; endogenous in cells; host or cells: U2OS cell lysate
The method, then: as §1, §2, §3, §4, §5, §6, §7, §8, §9

Test [9] addresses T9, proteins of U2OS cell lysate (Homo sapiens, UniProt P28074).
T9 construct: Proteins enriched by c-ponatinib from U2OS cell lysate; endogenous in cells; host or cells: U2OS cell lysate
The procedure:
as §1, §2, §3, §4, §5, §6, §7, §8, §9

In test [10] the target is T10, proteins of U2OS cell lysate (Homo sapiens, UniProt Q7RTV0).
T10 construct: Proteins enriched by c-ponatinib from U2OS cell lysate; endogenous in cells; host or cells: U2OS cell lysate
The method, then:
as §1, §2, §3, §4, §5, §6, §7, §8, §9

Test [11] addresses T11, proteins of U2OS cell lysate (Homo sapiens, UniProt Q16186).
T11 construct: Proteins enriched by c-ponatinib from U2OS cell lysate; endogenous in cells; host or cells: U2OS cell lysate
The method, then: as §1, §2, §3, §4, §5, §6, §7, §8, §9

For test [12], the target named is T12, proteins of U2OS cell lysate (Homo sapiens, UniProt P62195).
T12 construct: Proteins enriched by c-ponatinib from U2OS cell lysate; endogenous in cells; host or cells: U2OS cell lysate
The method, then: as §1, §2, §3, §4, §5, §6, §7, §8, §9

For test [13], the target named is T13, proteins of U2OS cell lysate (Homo sapiens, UniProt P09619).
T13 construct: Proteins enriched by c-ponatinib from U2OS cell lysate; endogenous in cells; host or cells: U2OS cell lysate
The procedure: as §1, §2, §3, §4, §5, §6, §7, §8, §9

Test [14] has as its target T14, proteins of U2OS cell lysate (Homo sapiens, UniProt P13073).
T14 construct: Proteins enriched by c-ponatinib from U2OS cell lysate; endogenous in cells; host or cells: U2OS cell lysate
The method, then: as §1, §2, §3, §4, §5, §6, §7, §8, §9

Test [15] has as its target T15, proteins of U2OS cell lysate (Homo sapiens, UniProt Q13233).
T15 construct: Proteins enriched by c-ponatinib from U2OS cell lysate; endogenous in cells; host or cells: U2OS cell lysate
The method, then:
as §1, §2, §3, §4, §5, §6, §7, §8, §9

Test [16] deals with T16, proteins of U2OS cell lysate (Homo sapiens, UniProt P12270).
T16 construct: Proteins enriched by c-ponatinib from U2OS cell lysate; endogenous in cells; host or cells: U2OS cell lysate
The procedure: as §1, §2, §3, §4, §5, §6, §7, §8, §9

Test [17] deals with T17, proteins of U2OS cell lysate (Homo sapiens, UniProt Q13247).
T17 construct: Proteins enriched by c-ponatinib from U2OS cell lysate; endogenous in cells; host or cells: U2OS cell lysate
The method, then: as §1, §2, §3, §4, §5, §6, §7, §8, §9

Test [18] has as its target T18, proteins of U2OS cell lysate (Homo sapiens, UniProt P19338).
T18 construct: Proteins enriched by c-ponatinib from U2OS cell lysate; endogenous in cells; host or cells: U2OS cell lysate
The method, then:
as §1, §2, §3, §4, §5, §6, §7, §8, §9

Test [19] addresses T19, proteins of U2OS cell lysate (Homo sapiens, UniProt P50613).
T19 construct: Proteins enriched by c-ponatinib from U2OS cell lysate; endogenous in cells; host or cells: U2OS cell lysate
The method, then:
as §1, §2, §3, §4, §5, §6, §7, §8, §9

Here are results for two compounds from PMC6120666 (The EMBO Journal, 2018).

T19 sequence (P50613 whole entry): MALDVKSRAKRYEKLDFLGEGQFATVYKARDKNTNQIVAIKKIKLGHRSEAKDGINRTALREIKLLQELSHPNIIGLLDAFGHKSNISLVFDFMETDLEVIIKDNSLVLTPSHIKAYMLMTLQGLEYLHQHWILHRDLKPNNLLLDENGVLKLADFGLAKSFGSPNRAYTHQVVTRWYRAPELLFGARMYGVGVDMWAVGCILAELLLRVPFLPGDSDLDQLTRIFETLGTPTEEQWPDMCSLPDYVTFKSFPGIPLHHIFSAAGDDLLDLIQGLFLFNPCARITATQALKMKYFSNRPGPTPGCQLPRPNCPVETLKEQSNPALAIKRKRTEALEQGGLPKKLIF
T18 sequence (P19338 whole entry): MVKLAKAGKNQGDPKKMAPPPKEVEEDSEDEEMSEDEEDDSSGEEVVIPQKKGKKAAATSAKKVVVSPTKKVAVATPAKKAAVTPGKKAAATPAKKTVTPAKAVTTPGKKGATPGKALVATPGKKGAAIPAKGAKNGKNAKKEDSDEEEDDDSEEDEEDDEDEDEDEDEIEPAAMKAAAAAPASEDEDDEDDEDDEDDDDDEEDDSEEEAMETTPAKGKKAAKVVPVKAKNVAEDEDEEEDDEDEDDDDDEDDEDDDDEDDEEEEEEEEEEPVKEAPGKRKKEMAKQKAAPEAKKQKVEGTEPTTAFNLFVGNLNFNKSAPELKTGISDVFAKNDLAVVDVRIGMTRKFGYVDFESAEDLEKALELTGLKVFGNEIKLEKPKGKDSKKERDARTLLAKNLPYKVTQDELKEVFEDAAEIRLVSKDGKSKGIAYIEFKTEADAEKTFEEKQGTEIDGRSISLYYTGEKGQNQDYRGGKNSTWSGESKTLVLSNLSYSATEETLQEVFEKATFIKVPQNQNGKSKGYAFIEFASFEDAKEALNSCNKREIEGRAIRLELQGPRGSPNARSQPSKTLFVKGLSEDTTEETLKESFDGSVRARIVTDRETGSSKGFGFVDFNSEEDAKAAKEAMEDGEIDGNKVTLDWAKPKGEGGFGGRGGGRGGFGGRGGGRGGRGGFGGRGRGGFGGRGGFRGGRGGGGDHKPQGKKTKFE
T10 sequence (Q7RTV0 whole entry): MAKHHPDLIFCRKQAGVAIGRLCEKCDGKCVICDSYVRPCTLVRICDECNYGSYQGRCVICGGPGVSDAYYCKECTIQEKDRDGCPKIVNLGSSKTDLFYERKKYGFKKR
T2 sequence (Q15428 whole entry): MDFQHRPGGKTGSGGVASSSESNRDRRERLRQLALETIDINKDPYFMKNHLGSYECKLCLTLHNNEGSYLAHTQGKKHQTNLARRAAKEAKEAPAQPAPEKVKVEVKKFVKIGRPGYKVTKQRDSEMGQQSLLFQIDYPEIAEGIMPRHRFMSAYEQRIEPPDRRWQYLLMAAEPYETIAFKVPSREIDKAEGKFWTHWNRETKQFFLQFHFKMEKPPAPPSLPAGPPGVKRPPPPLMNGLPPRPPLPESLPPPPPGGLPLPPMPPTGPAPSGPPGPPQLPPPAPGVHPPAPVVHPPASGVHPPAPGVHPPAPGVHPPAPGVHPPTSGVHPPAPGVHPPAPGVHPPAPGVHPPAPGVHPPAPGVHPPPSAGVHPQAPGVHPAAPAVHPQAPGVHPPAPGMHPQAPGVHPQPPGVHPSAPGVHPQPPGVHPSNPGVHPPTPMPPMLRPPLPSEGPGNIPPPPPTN
T11 sequence (Q16186 whole entry): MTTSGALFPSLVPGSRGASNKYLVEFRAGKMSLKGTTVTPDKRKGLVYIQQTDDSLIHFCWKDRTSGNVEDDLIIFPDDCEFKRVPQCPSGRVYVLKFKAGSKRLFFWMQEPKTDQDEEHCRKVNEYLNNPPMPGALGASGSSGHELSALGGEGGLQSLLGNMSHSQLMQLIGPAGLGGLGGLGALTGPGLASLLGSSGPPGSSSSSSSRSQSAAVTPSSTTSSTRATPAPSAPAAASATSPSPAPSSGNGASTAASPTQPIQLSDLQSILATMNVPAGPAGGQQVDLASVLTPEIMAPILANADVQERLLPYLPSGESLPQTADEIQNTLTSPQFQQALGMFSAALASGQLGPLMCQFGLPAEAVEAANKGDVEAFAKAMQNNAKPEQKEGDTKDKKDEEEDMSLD
T9 sequence (P28074 60-263): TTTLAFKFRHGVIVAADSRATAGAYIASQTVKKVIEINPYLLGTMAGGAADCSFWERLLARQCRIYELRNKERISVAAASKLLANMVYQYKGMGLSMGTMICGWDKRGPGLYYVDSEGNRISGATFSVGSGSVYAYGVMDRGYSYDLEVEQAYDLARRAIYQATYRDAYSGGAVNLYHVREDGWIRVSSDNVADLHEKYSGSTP
T5 sequence (Q13435 whole entry): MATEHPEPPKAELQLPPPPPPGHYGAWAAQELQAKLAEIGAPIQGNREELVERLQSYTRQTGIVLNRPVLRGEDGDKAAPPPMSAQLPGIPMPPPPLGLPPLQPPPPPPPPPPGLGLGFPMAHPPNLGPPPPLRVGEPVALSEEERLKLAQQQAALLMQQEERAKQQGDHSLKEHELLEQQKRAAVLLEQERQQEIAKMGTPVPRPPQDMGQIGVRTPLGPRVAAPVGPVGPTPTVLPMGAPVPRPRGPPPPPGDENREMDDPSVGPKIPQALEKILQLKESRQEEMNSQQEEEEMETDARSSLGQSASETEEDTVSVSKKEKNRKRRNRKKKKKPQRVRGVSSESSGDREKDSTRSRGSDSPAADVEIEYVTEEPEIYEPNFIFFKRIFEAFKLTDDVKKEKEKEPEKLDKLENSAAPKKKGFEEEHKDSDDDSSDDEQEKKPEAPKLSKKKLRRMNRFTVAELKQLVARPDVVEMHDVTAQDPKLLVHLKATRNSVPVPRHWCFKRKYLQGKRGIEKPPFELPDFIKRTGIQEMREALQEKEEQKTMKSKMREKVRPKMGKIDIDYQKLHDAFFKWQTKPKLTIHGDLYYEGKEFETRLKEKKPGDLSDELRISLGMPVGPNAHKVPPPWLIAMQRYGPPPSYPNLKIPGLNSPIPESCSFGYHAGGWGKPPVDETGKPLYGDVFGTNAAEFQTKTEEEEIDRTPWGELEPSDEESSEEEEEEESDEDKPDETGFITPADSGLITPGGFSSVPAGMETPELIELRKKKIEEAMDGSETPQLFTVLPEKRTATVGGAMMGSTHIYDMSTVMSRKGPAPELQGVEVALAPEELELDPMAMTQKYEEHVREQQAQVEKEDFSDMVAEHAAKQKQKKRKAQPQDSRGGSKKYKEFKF
T1 sequence (Q16643 whole entry): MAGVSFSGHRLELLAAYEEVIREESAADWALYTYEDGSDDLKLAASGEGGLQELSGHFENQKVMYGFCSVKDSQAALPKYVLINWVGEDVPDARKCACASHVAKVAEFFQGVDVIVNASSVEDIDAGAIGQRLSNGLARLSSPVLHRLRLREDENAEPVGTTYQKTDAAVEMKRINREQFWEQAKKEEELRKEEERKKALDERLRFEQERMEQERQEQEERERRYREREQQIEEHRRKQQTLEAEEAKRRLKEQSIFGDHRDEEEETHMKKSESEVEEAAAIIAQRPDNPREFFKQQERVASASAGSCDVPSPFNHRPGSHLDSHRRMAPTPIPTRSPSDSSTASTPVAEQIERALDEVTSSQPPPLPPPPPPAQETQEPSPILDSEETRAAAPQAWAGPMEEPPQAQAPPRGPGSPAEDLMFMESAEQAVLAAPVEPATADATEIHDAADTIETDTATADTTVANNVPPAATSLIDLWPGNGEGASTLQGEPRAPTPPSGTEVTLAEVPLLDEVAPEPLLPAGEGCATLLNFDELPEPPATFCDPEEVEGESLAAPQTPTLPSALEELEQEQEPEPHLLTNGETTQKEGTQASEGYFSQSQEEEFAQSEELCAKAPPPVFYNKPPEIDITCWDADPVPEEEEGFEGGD
T7 sequence (Q92598 whole entry): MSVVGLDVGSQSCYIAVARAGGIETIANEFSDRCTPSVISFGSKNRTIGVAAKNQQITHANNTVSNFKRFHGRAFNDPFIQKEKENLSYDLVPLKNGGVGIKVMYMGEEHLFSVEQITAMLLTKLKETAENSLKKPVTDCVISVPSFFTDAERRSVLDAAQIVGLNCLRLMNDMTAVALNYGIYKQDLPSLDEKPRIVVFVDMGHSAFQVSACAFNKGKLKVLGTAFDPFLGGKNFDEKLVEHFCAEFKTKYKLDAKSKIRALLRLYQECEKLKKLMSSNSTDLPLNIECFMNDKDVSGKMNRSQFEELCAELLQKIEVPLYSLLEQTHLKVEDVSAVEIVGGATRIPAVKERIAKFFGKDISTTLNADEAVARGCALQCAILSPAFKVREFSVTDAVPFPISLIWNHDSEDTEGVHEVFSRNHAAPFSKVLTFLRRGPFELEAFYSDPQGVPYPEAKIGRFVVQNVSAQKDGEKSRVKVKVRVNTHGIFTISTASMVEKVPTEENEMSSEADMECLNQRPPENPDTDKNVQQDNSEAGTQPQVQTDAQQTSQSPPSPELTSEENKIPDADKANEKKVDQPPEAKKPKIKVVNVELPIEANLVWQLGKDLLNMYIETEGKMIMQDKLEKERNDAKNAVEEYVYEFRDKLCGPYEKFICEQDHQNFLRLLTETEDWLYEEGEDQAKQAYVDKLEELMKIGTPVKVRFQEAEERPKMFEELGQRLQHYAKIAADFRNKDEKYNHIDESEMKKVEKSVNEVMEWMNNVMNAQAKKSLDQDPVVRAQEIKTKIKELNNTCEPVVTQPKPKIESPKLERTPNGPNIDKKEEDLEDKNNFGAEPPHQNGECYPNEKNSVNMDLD
T14 sequence (P13073 23-169): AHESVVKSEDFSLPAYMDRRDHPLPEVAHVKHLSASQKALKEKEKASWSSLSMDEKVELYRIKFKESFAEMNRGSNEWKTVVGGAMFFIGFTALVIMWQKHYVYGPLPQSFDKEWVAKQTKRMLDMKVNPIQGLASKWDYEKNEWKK

For `Cc1ccc(C(=O)Nc2ccc(CN3CCN(C)CC3)c(C(F)(F)F)c2)cc1C#Cc1cnc2cccnn12` [PON], the “Average LFQ PON_WT” value in [1] (DBN1, Drebrin) worked out at 22.4964; in test [2] (SF3A2, Splicing factor 3A subunit 2), 22.8464; in test [3] (SEPT11, Septin-11) it was 21.5746; in test [4] (GNB2L1, Guanine nucleotide-binding protein subunit beta-2-like 1), 22.5999; in [5] (SF3B2, Splicing factor 3B subunit 2), 22.8369; in test [6] (CCT5, T-complex protein 1 subunit epsilon), 22.2687. Further, the “Average LFQ PON_WT” value in test [7] (HSPH1, Heat shock protein 105 kDa) is given as 22.355; in test [8] (DYNC1I2, Cytoplasmic dynein 1 intermediate chain 2) it was 22.2038; in test [9] (PSMB5, Proteasome subunit beta type-5), 21.73; in [10] (PHF5A, PHD finger-like domain-containing protein 5A) it was 21.937; in test [11] (ADRM1, Proteasomal ubiquitin receptor ADRM1), 22.2159; in test [12] (PSMC5, 26S protease regulatory subunit 8), 22.2388. Besides, the “Average LFQ PON_WT” value came out at 22.3008 in test [13] (PDGFRB, Platelet-derived growth factor receptor beta); 21.5292 in [14] (COX4I1, Cytochrome c oxidase subunit 4 isoform 1, mitochondrial); 22.7864 in test [15] (MAP3K1, Mitogen-activated protein kinase kinase kinase 1); 22.5124 in test [16] (TPR, Nucleoprotein TPR); 21.8714 in test [17] (SRSF6, Serine/arginine-rich splicing factor 6); 23.1289 in [18] (NCL, Nucleolin). Moreover, the “Average LFQ PON_WT” value in [19] (CDK7, Cyclin-dependent kinase 7) came out at 22.0619.
For the compound `Cc1ccc(C(=O)Nc2ccc(CN3CCN(CCCN)CC3)c(C(F)(F)F)c2)cc1C#Cc1cnc2cccnn12` [c-ponatinib, reference compound], the “Average LFQ intensity” value in test [1] (captured protein DBN1, Rank 158) came to 22.4964; in test [2] (captured protein SF3A2, Rank 134) it was 22.8464; in [3] (captured protein 2011-09-01 (Septin-11), Rank 222), 21.5746; in test [4] (captured protein GNB2L1, Rank 153) it was 22.5999; in [5] (captured protein SF3B2, Rank 136), 22.8369; in test [6] (captured protein CCT5, Rank 171), 22.2687. Moreover, the “Average LFQ intensity” value worked out at 22.3551 in test [7] (captured protein HSPH1, Rank 164); 22.2038 in [8] (captured protein DYNC1I2, Rank 179); 21.7301 in [9] (captured protein PSMB5, Rank 211); 21.937 in [10] (captured protein PHF5A, Rank 194); 22.2159 in test [11] (captured protein ADRM1, Rank 178); 22.2388 in test [12] (captured protein PSMC5, Rank 176). Also, the “Average LFQ intensity” value in test [13] (captured protein PDGFRB, Rank 168) is on record as 22.3008; in test [14] (captured protein COX4I1, Rank 227) it was 21.5292; in test [15] (captured protein MAP3K1, Rank 139) it was 22.7864; in [16] (captured protein TPR, Rank 156) it was 22.5124; in test [17] (captured protein SRSF6, Rank 196), 21.8714; in test [18] (captured protein NCL, Rank 117) it was 23.1289. In test [19] (captured protein CDK7, Rank 187), the “Average LFQ intensity” value is given as 22.0619.
